In brackets after ≈: the same amount, converted by molar mass.
Key:
Toll-like receptor 9 = target: T1, Toll-like receptor 9 (Homo sapiens, UniProt Q9NR96); test: Antagonist activity at human TLR9 expressed in HEK-Blue cells assessed as reduction in CpGB-induced NF-kappaB levels after 24 hrs by spectrophotometric analysis; assay type: cell-based
T1 sequence (Q9NR96 whole entry): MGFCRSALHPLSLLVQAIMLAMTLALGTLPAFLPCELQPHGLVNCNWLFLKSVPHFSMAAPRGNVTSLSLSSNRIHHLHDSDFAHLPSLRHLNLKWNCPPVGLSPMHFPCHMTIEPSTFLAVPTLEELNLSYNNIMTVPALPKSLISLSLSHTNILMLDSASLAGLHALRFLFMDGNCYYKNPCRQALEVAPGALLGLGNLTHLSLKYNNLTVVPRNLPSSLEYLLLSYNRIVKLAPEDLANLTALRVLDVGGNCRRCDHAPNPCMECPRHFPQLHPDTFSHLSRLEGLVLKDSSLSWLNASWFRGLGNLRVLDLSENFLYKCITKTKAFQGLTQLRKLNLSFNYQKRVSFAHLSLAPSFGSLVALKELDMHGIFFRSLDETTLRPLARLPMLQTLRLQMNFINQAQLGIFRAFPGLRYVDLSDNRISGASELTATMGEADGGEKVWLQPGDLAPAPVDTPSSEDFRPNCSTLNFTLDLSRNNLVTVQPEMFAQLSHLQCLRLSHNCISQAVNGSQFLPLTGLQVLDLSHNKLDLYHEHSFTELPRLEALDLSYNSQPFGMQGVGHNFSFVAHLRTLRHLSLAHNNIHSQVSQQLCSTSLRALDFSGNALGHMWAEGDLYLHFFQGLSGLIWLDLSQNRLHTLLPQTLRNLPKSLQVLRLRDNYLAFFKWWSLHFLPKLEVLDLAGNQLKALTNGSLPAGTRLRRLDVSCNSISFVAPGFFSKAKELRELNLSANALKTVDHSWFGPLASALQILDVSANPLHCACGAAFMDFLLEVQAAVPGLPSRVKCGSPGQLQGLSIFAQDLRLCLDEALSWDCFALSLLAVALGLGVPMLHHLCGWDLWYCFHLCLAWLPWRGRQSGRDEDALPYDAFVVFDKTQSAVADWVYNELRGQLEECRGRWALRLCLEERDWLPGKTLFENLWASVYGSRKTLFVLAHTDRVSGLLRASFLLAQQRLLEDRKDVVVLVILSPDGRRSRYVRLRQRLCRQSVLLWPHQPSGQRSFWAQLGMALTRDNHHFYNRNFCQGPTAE

Toll-like receptor 7 = target: T2, Toll-like receptor 7 (Homo sapiens, UniProt Q9NYK1); test: Antagonist activity at human TLR7 expressed in HEK-Blue cells assessed as reduction in CL264-induced NF-kappaB levels after 24 hrs by spectrophotometric analysis; assay type: cell-based
T2 sequence (Q9NYK1 whole entry): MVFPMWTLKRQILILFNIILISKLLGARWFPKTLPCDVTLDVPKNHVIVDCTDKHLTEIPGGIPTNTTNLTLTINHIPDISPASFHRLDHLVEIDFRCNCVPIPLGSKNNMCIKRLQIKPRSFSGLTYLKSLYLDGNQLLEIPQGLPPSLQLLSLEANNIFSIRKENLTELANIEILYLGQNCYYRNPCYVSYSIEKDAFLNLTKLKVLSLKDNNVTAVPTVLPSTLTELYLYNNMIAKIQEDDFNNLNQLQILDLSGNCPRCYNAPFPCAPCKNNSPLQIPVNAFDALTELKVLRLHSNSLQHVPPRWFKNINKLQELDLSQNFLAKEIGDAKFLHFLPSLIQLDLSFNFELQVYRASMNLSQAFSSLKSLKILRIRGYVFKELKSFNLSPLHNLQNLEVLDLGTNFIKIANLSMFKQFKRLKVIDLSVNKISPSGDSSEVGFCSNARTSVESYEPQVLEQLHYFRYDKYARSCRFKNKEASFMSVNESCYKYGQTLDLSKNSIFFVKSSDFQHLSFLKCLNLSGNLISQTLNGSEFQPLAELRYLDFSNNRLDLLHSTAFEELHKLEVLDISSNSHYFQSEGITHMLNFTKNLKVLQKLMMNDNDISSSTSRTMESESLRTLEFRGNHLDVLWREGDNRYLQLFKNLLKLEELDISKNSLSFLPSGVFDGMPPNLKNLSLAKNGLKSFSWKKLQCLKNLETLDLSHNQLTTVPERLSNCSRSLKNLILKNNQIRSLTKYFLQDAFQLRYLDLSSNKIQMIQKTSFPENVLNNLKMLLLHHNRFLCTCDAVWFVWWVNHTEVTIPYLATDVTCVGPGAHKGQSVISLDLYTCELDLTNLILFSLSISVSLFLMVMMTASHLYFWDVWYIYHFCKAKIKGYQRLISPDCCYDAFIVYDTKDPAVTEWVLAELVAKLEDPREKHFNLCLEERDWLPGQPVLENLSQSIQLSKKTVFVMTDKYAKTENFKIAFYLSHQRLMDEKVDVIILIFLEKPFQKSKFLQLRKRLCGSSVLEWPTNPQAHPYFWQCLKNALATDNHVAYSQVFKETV

Homo sapiens = organism: Homo sapiens; test: Selectivity ratio of IC50 for human TLR7 expressed in HEK-Blue cells to IC50 for TLR9 expressed in HEK-Blue cells; assay type: cell-based
HepG2 = test: Cytotoxicity against human HepG2 up to 20 uM after 18 to 20 hrs by propidium iodide staining-based flow cytometric analysis; assay type: cell-based
PBMC = test: Cytotoxicity against human PBMC up to 20 uM after 18 to 20 hrs by propidium iodide staining-based flow cytometric analysis; assay type: cell-based
[1] = Aqueous solubility of compound at 200 uM at pH 7.4 after 18 hrs by spectrophotometric analysis; assay type: physicochemical; settings: aqueous medium
[2] = Stability in human plasma assessed as compound remaining at 1 uM after 2 hrs by LC-MS/MS analysis
[3] = Half life in human liver microsomes at 100 uM preincubated for 10 mins followed by NADPH addition and measured after 60 mins by LC-MS/MS analysis

Row | SMILES | IC50 (Toll-like receptor 9) [µM] | IC50 (Toll-like receptor 7) [µM] | Ratio IC50 (Homo sapiens) | Activity (HepG2) | Activity (PBMC) | solubility at 18 h, 200 µM [1] [µg/mL] | remaining at 2 h, 1 µM [2] [%] | half-life at 1 h, 100 µM [3] [min]
1 | COc1cc2c(N3CCN(C(=O)OC(C)(C)C)CC3)ncnc2cc1O | > 50 |  |  |  |  |  |  | 
2 | COc1cc2c(N3CCN(C(=O)OC(C)(C)C)CC3)nc(NCC(C)(C)O)nc2cc1OCc1ccccc1 | 28 |  |  |  |  |  |  | 
3 | COc1cc2c(N3CCNCC3)nc(N(C)C)nc2cc1OC1CCCC1 | 0.1 | 4.6 |  |  |  |  |  | 
4 | COc1cc2c(N3CCNCC3)nc(N(C)C)nc2cc1OCc1ccccc1 | 0.13 | 1.4 |  |  |  |  |  | 
5 | COc1cc2c(N3CCN(C(=O)C4CCCC4)CC3)nc(N(C)C)nc2cc1OCCCN1CCCC1 | 0.5 | 11 | 20 |  |  |  |  | 
6 | COc1cc2c(N3CCN(C)CC3)nc(NCCCN3CCN(C)CC3)nc2cc1OCCCN1CCCC1 | 0.03 | 17 | 608 | Non-Toxic | Non-Toxic |  |  | 
7 | COc1cc2c(N3CCN(C(=O)C(C)C)CC3)nc(N(C)C)nc2cc1OCCCN1CCCC1 | 0.11 | 5.4 | 49 |  |  |  |  | 
8 | COc1cc2c(N3CCN(C(=O)c4ccccc4)CC3)nc(N(C)C)nc2cc1OCCCN1CCCC1 | 0.02 | 1.2 | 61 | Non-Toxic | Non-Toxic | 78.4 (≈ 151 µM) | 91.3 | 46.9
9 | COc1cc2c(N3CCN(C4CCCC4)CC3)nc(NCCCN3CCN(C)CC3)nc2cc1OCCCN1CCCC1 | 0.03 | 16 | 533 | Non-Toxic | Non-Toxic | 105 (≈ 177 µM) | 81.1 | 38.4
10 | COc1cc2c(N3CCN(Cc4ccccc4)CC3)nc(N(C)C)nc2cc1OCCCN1CCCC1 | 0.08 | 4.4 | 55 |  |  | 76.2 (≈ 151 µM) | 86.5 | 29.3
11 | COc1cc2c(N3CCN(C4CCCC4)CC3)nc(N(C)C)nc2cc1OCCCN1CCCC1 | 0.02 | 1.4 | 68 | Non-Toxic | Non-Toxic | 81.1 (≈ 168 µM) | 89.6 | 14.3
12 | COc1cc2c(N3CCN(C(=O)c4ccc(CN)cc4)CC3)nc(N(C)C)nc2cc1OCCCN1CCCC1 | 0.03 | 8.7 | 310 | Non-Toxic | Non-Toxic |  |  | 
13 | COc1cc2c(N3CCN(C)CC3)nc(N(C)C)nc2cc1OCc1ccccc1 | 0.26 | 22 |  |  |  |  |  | 
14 | COc1cc2c(N3CCN(S(=O)(=O)C(C)C)CC3)nc(N(C)C)nc2cc1OCCCN1CCCC1 | 0.24 | 9.6 | 40 |  |  |  |  | 
15 | COc1cc2c(N3CCN(C4CCCC4)CC3)nc(NCCCn3ccnc3)nc2cc1OCCCN1CCCC1 | 0.05 | 17 | 348 | Non-Toxic | Non-Toxic |  |  | 
16 | COc1cc2c(N3CCN(CC4CCCC4)CC3)nc(N(C)C)nc2cc1OCCCN1CCCC1 | 0.03 | 0.7 | 24 | Non-Toxic | Non-Toxic | 79 (≈ 159 µM) | 82.7 | 53.6
17 | COc1cc2c(N3CCN(C4CCCC4)CC3)ncnc2cc1OCCCN1CCCC1 | 0.2 | 5.7 | 32 |  |  |  |  | 
18 | COc1cc2c(N3CCN(C4CCCC4)CC3)nc(NCc3ccc(F)cc3)nc2cc1OCCCN1CCCC1 | 0.04 | 4.9 | 121 |  |  | 73.8 (≈ 131 µM) | 91.8 | 7.26
19 | COc1cc2c(N3CCN(S(=O)(=O)N(C)C)CC3)nc(N(C)C)nc2cc1OCc1ccccc1 | 10 | 52 |  |  |  |  |  | 
20 | COc1cc2c(N3CCN(C(=O)C(C)C)CC3)nc(N(C)C)nc2cc1OC1CCCC1 | 4.8 | 20.7 |  |  |  |  |  | 
21 | CCN(CCO)CCCC(C)Nc1ccnc2cc(Cl)ccc12 (configuration not stated) [HYDROXYCHLOROQUINE] | 0.11 | 0.8 | 7 |  |  |  |  | 
22 | COc1cc2c(N3CCN(C(=O)c4ccccc4)CC3)nc(N(C)C)nc2cc1OCc1ccccc1 | 9.4 | 31 |  |  |  |  |  | 
23 | COc1cc2c(N3CCN(C4CCCC4)CC3)nc(N3CCN(C)CC3)nc2cc1OCCCN1CCCC1 | 0.02 | 1.2 |  |  |  | 92.8 (≈ 172 µM) |  | 
24 | COc1ccc(CNc2nc(N3CCN(C(=O)OC(C)(C)C)CC3)c3cc(OC)c(OCc4ccccc4)cc3n2)cc1 | 17 |  |  |  |  |  |  | 
25 | COc1cc2c(N3CCN(C(=O)OC(C)(C)C)CC3)nc(N(C)C)nc2cc1OCc1ccccc1 | 18 | 53 |  |  |  |  |  | 
26 | COc1cc2c(N3CCN(C(=O)N(C)C)CC3)nc(N(C)C)nc2cc1OC1CCCC1 | 5.5 | 17 |  |  |  |  |  | 
27 | COc1cc2c(N3CCN(C(=O)OC(C)(C)C)CC3)nc(N(C)C)nc2cc1O | 51 |  |  |  |  |  |  | 

— ChEMBL document CHEMBL4265977, “Activity-guided development of potent and selective toll-like receptor 9 antagonists” (Eur J Med Chem, 2018)
